Results from US8257931B2 (President and Fellows of Harvard College, priority 2005, dated 2012).
pIC50: −log10 of the molar value. Entries after “also recorded” stand apart in the source; their conditions may differ. Read-outs that look alike come from different tables or passages of the source.

Tests used:
[1] = tested on: Jurkat cells; assay: Apoptosis in Jurkat cells: sub-G1 DNA content by FACS, Hoechst 33342 nuclear morphology; type: cell-based, human
Procedure: (§1) Such results can result from pro-apoptotic and/or anti-proliferative activity in these cell lines. Cell viability was measured by treatment of Jurkat cells with compound for 24 hours and determination of intracellular ATP using the CellTiterGlo assay (Promega). […] After fixation and staining with PI cellular DNA content was determined by FACS analysis in a FACSCalibur machine (Beckton Dickinson). Nuclear morphology after 24 hour EG1-1 treatment was visualized by staining of cells with Hoechst 33342 dye and fluorescence microscopy.

[2] = tested on: Jurkat cells; assay: Jurkat cell viability by intracellular ATP (CellTiterGlo); type: cell-based, human; conditions: 24 hours
Procedure: as §1

[3] = tested on: Jurkat cells; assay: Western blotting of Jurkat cell extracts for protein levels; conditions: 8 hours
Procedure: (§7) For analysis of cellular protein and mRNA levels, Jurkat cells were grown for 8 hours in the presence of the compound. Extracts for Western blotting were prepared from half of the cells by multiple freeze-thaw cycles. β-actin, Bcl-xL, and c-myc were detected using polyclonal antibodies (Cell Signaling). For the remaining cells the PARIS kit (Ambion) was used to isolate total nuclear and total cytoplasmic RNA fractions. The integrity of the fractionation was confirmed by agarose gel electrophoresis (as prescribed by Ambion). Contaminating DNA was removed using the DNA-free kit (Ambion), and cDNA was prepared using MMLV reverse transcriptase (Promega). The relative abundance of the c-myc and Bcl-xL messages compared to β-actin was determined by real-time PCR with validated QuantiTec probes and the QuantiTec SYBR Green Kit (Qiagen), using a thermocycler from Applied Biosystems.

[4] = tested on: HT29 colon cancer cells; assay: HT29 cell growth, Alamar Blue assay; type: cell-based; conditions: Homo sapiens, HT-29
Procedure: (§2) Adherent human solid tumor cells were plated and maintained for 3 days in the presence of increasing concentration of the compounds, and cell proliferation was measured by alamar blue assay, where 10% of commercially available solution is added to the cell medium and measure fluorescence in 96-well plates at wavelength of 530 nm excitation and 590 nm emission. The data calculations were carried out as previously described.
Med. Chem. Lett. 14: 2547-50, 2004. […] .
(§3) Compounds were further tested for cell growth inhibition in a human lung cancer cell line (A549) and conlon cancer cell line (HT29). The Alamar Blue assay, which specifically measures the inhibition of cell proliferation, was used to assess the GI50's of the compounds.

[5] = tested on: Jurkat cells; assay: Real-time PCR of c-myc and Bcl-xL mRNA relative to β-actin in Jurkat cells; conditions: 8 hrs
Procedure: as §7

[6] = tested on: A549 lung cancer cells; assay: A549 proliferation, sulforhodamine B (SRB) assay; type: cell-based, human
Procedure: FIG. 28 is a graph showing the results of a cell proliferation assay. A549 cells, which are human lung cancer cells, are grown in plates for five days in medium containing 5% FCS and compound. The number of cells is quantified by staining with sulforhodamine B.

[7] = tested on: A549 cells; assay: A549 cytotoxicity, CellTiter-Glo luminescence assay; conditions: A549, 16 hours, concentration range of anti-proliferative activity
Procedure: To determine if this was simply due to toxicity, cell viability after compound treatment was determined using a luminescence assay (FIG. 8B).

[8] = tested on: human lung cancer cell line (A549); assay: A549 cell growth inhibition, Alamar Blue assay; type: cell-based
Procedure: as §2, §3

[9] = tested on: IRES driven translation; assay: In vitro translation of dual luciferase reporter in rabbit reticulocyte lysate, CrPV IRES driven firefly luciferase; type: biochemical
Text: (§4) To determine the relative effects of the compound on cap dependent and independent translation, we utilized a bicistronic mRNA construct containing the gene for Renilla luciferase under the control of the cap and the message for firefly luciferase under the control of the cricket paralysis virus IRES (FIG. 2A). […] A dicistronic reporter construct containing the Renilla reniformis luciferase sequence after the 5′ UTR followed by the CrPV IRES and the firefly luciferase sequence was used to build a reporter construct plasmid. The reporter construct plasmid was linearized with BamHI and transcribed in vitro with an ARCA cap using the mMessage Machine T7 Ultra Kit (Ambion). In vitro translation reactions were carried out using Red Nova reticulocyte lysate (Novagen) with 2 mM magnesium acetate and […] potassium acetate, incubated at 30 degrees C. for 90 minutes. Translation of reporter genes was measured using the Dual-Glo luciferase assay (Promega) in a Wallac Victor^2 plate reader.
(§5) In addition to structurally characterizing the binding of our hit compounds, biological activities of the compounds was evaluated. […] To test this hypothesis in vitro, a translation assay in rabbit reticulocyte lysate was carried out. A dicistronic reporter construct containing a cap-dependent Renilla luciferase and a cricket paralysis virus IRES driven firefly luciferase was utilized to measure the relative affect of a compound on both translation mechanisms.
(§6) A functional cell free assay determined the relative effects of the compounds on cap- and IRES-dependent translations. This assay involved the in vitro translation of bicistronic mRNA reporter construct encoding for renilla luciferase in a cap-dependent and for firefly luciferase in a cap independent manner, the later driven by cricket paralysis virus IRES.

[10] = tested on: cap-dependent translation; assay: In vitro translation of dual luciferase reporter in rabbit reticulocyte lysate, cap-dependent Renilla luciferase; type: biochemical
Text: as §4, §5, §6

O=C(O)/C(Cc1ccccc1[N+](=O)[O-])=N/Nc1nc(-c2ccc(Cl)c(Cl)c2)cs1 [EGI-1, 2-{[4-(3,4-Dichloro-phenyl)-thiazol-2-yl]-hydrazono}-3-(2-nitro-phenyl)-propionic acid]
apoptosis induction [1]: induces apoptosis; also recorded: pro-apoptotic activity
sub-G1 fraction on co-treatment with zVAD-FMK ([1]; 60 μM with 100 μM zVAD-FMK, 24 hours): suppressed
nuclear morphology (Hoechst 33342) ([1]; 60 μM, 24 hours): induces fragmented nuclear morphology
sub-G1 fraction (fragmented DNA) ([1]; 60 μM, 24 hours): induces DNA fragmentation; also recorded: large increase in the sub-G1 fraction
cell viability (cellular ATP level) [2]: induces loss of cell viability; also recorded: dose-dependent loss of cell viability
effect on strong mRNAs such as β-actin (protein level) [3]: little or no effect
production of proteins encoded by weak mRNAs (Bcl-xL, c-myc) [3]: inhibits the production
pIC50 [4]: 5.05
GI50 ([4]; Alamar Blue assay): 9 µM
transcriptional level, transport or stability of c-myc and Bcl-xL mRNA [5]: does not affect
pIC50 ([6]; Homo sapiens, A549, FIG. 8A, read-out: IC50, anti-proliferative activity in A549 cells): ~5.22
proliferation of A549 cells (in words) ([6]; SRB assay, five day growth period): inhibits proliferation
cytotoxicity (cell viability after compound treatment) [7]: No significant cytotoxicity
GI50 [8]: 5 µM
IRES driven / cap-independent translation (firefly luciferase) [9]: does not inhibit; also recorded: not inhibited and in fact significantly enhanced; also recorded: enhanced translation from the CrPV IRES
IRES driven / cap-independent translation (firefly luciferase) ([9]; listed as compound 1): enhance
cap-dependent translation (Renilla luciferase) [10]: inhibits cap-dependent translation; also recorded: inhibited in a dose-dependent manner; also recorded: inhibited translation of the cap-dependent luciferase
cap-dependent translation (Renilla luciferase) ([10]; listed as compound 1): inhibit dose-dependently
